Test systems include CAKI-1 renal; COLO 205 colon; DU-145 prostate; HCC-2998 colon; IGROV1 ovarian; M14 melanoma; MALME-3M melanoma; OVCAR-8 ovarian; RXF 393 renal; SF-539 CNS; SK-MEL-28 melanoma; SK-MEL-5 melanoma; SK-OV-3 ovarian; SR leukemia; T-47D breast; TK-10 renal; UACC-257 melanoma; UACC-62 melanoma; HS 578T breast.
What all share (assay): NCI anticancer screen, dose series, 48 h

Our source for the TGI values is PubChem BioAssay (NCI).

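Test compounds were applied to cells in 96-well plates for 48 hours at 5 doses. The concentration for full growth arrest is given as TGI.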

Regarding `O=C(c1cscc1CCc1ccccc1)c1cscc1CCc1ccccc1`, the TGI with CAKI-1 renal, in the test on COLO 205 colon, in the test on DU-145 prostate, in the test with HCC-2998 colon, in the test on IGROV1 ovarian and in the test on M14 melanoma was over 100 µM in each case. Besides, the TGI in the test with MALME-3M melanoma, with OVCAR-8 ovarian, in the test on RXF 393 renal, in the test with SF-539 CNS, in the test with SK-MEL-28 melanoma and in the test on SK-MEL-5 melanoma was over 100 µM throughout. Besides, the TGI with SK-OV-3 ovarian, in the test with SR leukemia, in the test on T-47D breast, in the test with TK-10 renal, in the test with UACC-257 melanoma and with UACC-62 melanoma was over 100 µM throughout.

With `COC(=O)/C=C/CCC#Cc1ccccc1C#CCC/C=C/C(=O)OC`, the TGI in the test with CAKI-1 renal is 10.1 µM; in the test with COLO 205 colon it was 42.3 µM; with DU-145 prostate, over 100 µM; with HCC-2998 colon, over 100 µM; in the test with IGROV1 ovarian, 98.2 µM; in the test with M14 melanoma, over 100 µM. Also, the TGI with MALME-3M melanoma is over 100 µM; in the test on OVCAR-8 ovarian it was 26 µM; with RXF 393 renal, 27 µM; in the test with SF-539 CNS it was 30.9 µM; in the test on SK-MEL-28 melanoma, over 100 µM; in the test on SK-OV-3 ovarian, over 100 µM. The TGI in the test with SR leukemia was over 100 µM; in the test with T-47D breast, 97.9 µM; with TK-10 renal, over 100 µM; in the test on UACC-257 melanoma, over 100 µM; with UACC-62 melanoma it was over 100 µM.

As for `CCO/C(O)=C(/C(=N)N1CCOCC1)C(=O)NC(C)C`, the TGI in the test on CAKI-1 renal, in the test on COLO 205 colon, in the test with DU-145 prostate, in the test with HCC-2998 colon, in the test on HS 578T breast and in the test on IGROV1 ovarian was over 100 µM throughout. In addition, the TGI in the test with M14 melanoma, with MALME-3M melanoma, with OVCAR-8 ovarian, in the test on RXF 393 renal, in the test on SF-539 CNS and with SK-MEL-28 melanoma was over 100 µM throughout. For the same molecule, the TGI with SK-OV-3 ovarian, in the test with T-47D breast, in the test on TK-10 renal, with UACC-257 melanoma and in the test with UACC-62 melanoma was over 100 µM each time.

As for `Cc1ccc(N2C(=O)C3c4[nH]c5ccc(C)cc5c4C4CCC(C(C)(C)C)CC4C3C2=O)cc1` (configuration not stated), the TGI in the test on CAKI-1 renal is 45.3 µM; in the test on COLO 205 colon it was over 100 µM; with DU-145 prostate, 62 µM; with HS 578T breast, 44 µM; with IGROV1 ovarian, 36.5 µM; with M14 melanoma, over 100 µM. The TGI in the test on MALME-3M melanoma was 44.4 µM; in the test on OVCAR-8 ovarian, 24.4 µM; in the test on SK-MEL-28 melanoma, 90.6 µM; with SK-MEL-5 melanoma, over 100 µM; with T-47D breast it was 25.9 µM; in the test with TK-10 renal, 39.5 µM. Moreover, the TGI in the test on UACC-257 melanoma was over 100 µM; in the test with UACC-62 melanoma it was 30 µM.

With `O=C(OCc1ccccc1)C(Cc1ccc(OCc2ccccc2)cn1)NC(=O)C(F)(F)F` (configuration not stated), the TGI in the test on CAKI-1 renal, in the test on COLO 205 colon, in the test on DU-145 prostate, with HCC-2998 colon, in the test on HS 578T breast and in the test with IGROV1 ovarian was over 100 µM throughout. Also, the TGI with MALME-3M melanoma, in the test on OVCAR-8 ovarian, in the test on RXF 393 renal, in the test with SF-539 CNS, in the test on SK-MEL-28 melanoma and with SK-MEL-5 melanoma was over 100 µM throughout. The TGI in the test with SR leukemia, in the test with TK-10 renal and with UACC-257 melanoma was over 100 µM each time.

As for `C[N+](C)(C)CC(=O)N/N=C(\Cc1nc2ccc([N+](=O)[O-])cc2[nH]c1=O)C(=O)Nc1nc2ccc([N+](=O)[O-])cc2s1`, the TGI with CAKI-1 renal is 92 µM; with COLO 205 colon, over 100 µM; with DU-145 prostate, over 100 µM; with HCC-2998 colon, over 100 µM; with IGROV1 ovarian, over 100 µM; in the test with M14 melanoma it was over 100 µM. Moreover, the TGI in the test on OVCAR-8 ovarian, with RXF 393 renal, with SF-539 CNS, in the test on SK-MEL-28 melanoma, in the test on SK-MEL-5 melanoma and with SK-OV-3 ovarian was over 100 µM each time. For the same molecule, the TGI in the test on SR leukemia, in the test on T-47D breast, in the test on TK-10 renal, with UACC-257 melanoma and in the test with UACC-62 melanoma was over 100 µM throughout.

As for `CCOC(=O)CN1C(=O)NC(C)(c2ccccc2)C1=O` (configuration not stated), the TGI in the test with CAKI-1 renal, with COLO 205 colon, with DU-145 prostate, with HCC-2998 colon, in the test on HS 578T breast and with IGROV1 ovarian was over 100 µM throughout. Also, the TGI in the test with M14 melanoma, in the test on OVCAR-8 ovarian, in the test on RXF 393 renal, in the test with SF-539 CNS, in the test on SK-MEL-28 melanoma and in the test with SK-MEL-5 melanoma was over 100 µM each time. Moreover, the TGI in the test on SK-OV-3 ovarian, with T-47D breast, with TK-10 renal, with UACC-257 melanoma and in the test with UACC-62 melanoma was over 100 µM in each case.

As to `C=C(Cl)/C(=C\Cl)CCC(Cl)C(C)C` (configuration not stated) (tested in a mixture with another compound), the TGI in the test on CAKI-1 renal is 32.2 µM; with COLO 205 colon, 54.6 µM; with DU-145 prostate, 31.9 µM; in the test on HCC-2998 colon it was 32.7 µM; in the test on HS 578T breast, 31.9 µM; with IGROV1 ovarian it was 28.4 µM. Also, the TGI in the test with M14 melanoma turned out to be 32.7 µM; with MALME-3M melanoma, 29.2 µM; with RXF 393 renal it was 23.6 µM; in the test on SF-539 CNS it was 32.2 µM; in the test on SK-MEL-28 melanoma it was 34.8 µM; with SK-MEL-5 melanoma, 27.6 µM. Also, the TGI with SK-OV-3 ovarian was 44.5 µM; in the test on SR leukemia, over 100 µM; with TK-10 renal it was 33.9 µM; in the test with UACC-257 melanoma, 27.2 µM; with UACC-62 melanoma, 25.3 µM.
